Test results reported in patent US8575158B2, “1-phenyl-substituted heterocyclyl derivatives and their use as prostaglandin D2 receptor modulators” (Actelion Pharmaceuticals Ltd., priority 2010, dated 2013).

Target: T1, hCRTH2 receptor (Homo sapiens, UniProt Q9Y5Y4)
T1 construct: expressed in transfected cells; host or cells: HEK293
T1 sequence (Q9Y5Y4 1-395): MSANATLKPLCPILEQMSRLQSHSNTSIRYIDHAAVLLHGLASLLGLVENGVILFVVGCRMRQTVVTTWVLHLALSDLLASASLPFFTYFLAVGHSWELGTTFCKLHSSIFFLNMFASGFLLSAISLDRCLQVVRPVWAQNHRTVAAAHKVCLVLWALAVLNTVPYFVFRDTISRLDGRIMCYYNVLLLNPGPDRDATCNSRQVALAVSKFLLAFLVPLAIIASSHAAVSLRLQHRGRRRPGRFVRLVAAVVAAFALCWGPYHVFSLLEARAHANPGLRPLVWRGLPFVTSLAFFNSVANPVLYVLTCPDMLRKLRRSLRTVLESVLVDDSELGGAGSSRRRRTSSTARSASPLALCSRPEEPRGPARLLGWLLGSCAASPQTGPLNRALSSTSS
Assay: Radioligand displacement assay (3H-PGD2) on hCRTH2 receptor membranes
Format: binding
Conditions: antagonistic activity

[1] = 3H-PGD2 radioligand displacement, HEK293-hCRTH2 membranes
[2] = radioligand displacement (3H-PGD2), hCRTH2 receptor membranes

| SMILES | IC50 [1] [nM] | IC50 [2] [nM] |
| --- | --- | --- |
| O=C(O)COc1ccc(Cl)cc1[C@@H]1c2ccc(F)cc2CCN1C(=O)CCn1ncc2cc(F)ccc21 [Example 395, (4-Chloro-2-{(S)-6-fluoro-2-[3-(5-fluoro-indazol-1-yl)-propionyl]-1,2,3,4-tetrahydro-isoquinolin-1-yl}-phenoxy)-acetic acid] | 28.4 |  |
| O=C(O)COc1ccc(Cl)cc1[C@@H]1c2ccc(F)cc2CCN1C(=O)CCn1ncc2cc(Cl)ccc21 [Example 396] | 152 |  |
| Cc1nn(CCC(=O)N2CCc3cc(F)ccc3[C@H]2c2cc(Cl)ccc2OCC(=O)O)c2ccccc12 [Example 397, (4-Chloro-2-{(S)-6-fluoro-2-[3-(3-methyl-indazol-1-yl)-propionyl]-1,2,3,4-tetrahydro-isoquinolin-1-yl}-phenoxy)-acetic acid] | 32.1 |  |
| O=C(O)COc1ccc(Cl)cc1[C@@H]1c2ccc(F)cc2CCN1C(=O)CCn1ncc2ccc(F)cc21 [Example 398] | 64.7 |  |
| O=C(O)COc1ccc(Cl)cc1[C@@H]1c2ccc(F)cc2CCN1C(=O)CCn1ncc2c(F)cccc21 [Example 399] | 144 |  |
| O=C(O)COc1ccc(Cl)cc1[C@@H]1c2ccc(F)cc2CCN1C(=O)CCn1ncc2cccc(Cl)c21 [Example 400] | 678 |  |
| O=C(O)COc1ccc(Cl)cc1[C@@H]1c2ccc(F)cc2CCN1C(=O)CCn1ncc2ccc(Cl)cc21 [Example 401, (4-Chloro-2-{(S)-2-[3-(6-chloro-indazol-1-yl)-propionyl]-6-fluoro-1,2,3,4-tetrahydro-isoquinolin-1-yl}-phenoxy)-acetic acid] | 46.9 |  |
| O=C(O)COc1ccc(Cl)cc1[C@@H]1c2ccc(F)cc2CCN1C(=O)CCn1ncc2c(Cl)cccc21 [Example 402] | 170 |  |
| O=C(O)COc1ccc(Cl)cc1[C@@H]1c2ccc(F)cc2CCN1C(=O)CCn1ncc2cccc(F)c21 [Example 403] | 79.1 |  |
| O=C(O)COc1ccc(Cl)cc1C1c2ccccc2CN1C(=O)CCn1ncc2cc(Cl)ccc21 (stereo not shown) [Example 544] | 340 |  |
| O=C(O)COc1ccc(Cl)cc1C1c2ccccc2CN1C(=O)CCn1ncc2ccc(Cl)cc21 (stereo not shown) [Example 549] | 180 |  |
| O=C(O)COc1ccc(Cl)cc1C1c2ccccc2CN1C(=O)CCn1ncc2c(Cl)cccc21 (stereo not shown) [Example 550] | 240 |  |
| N#CNC(=O)COc1ccc(Cl)cc1[C@@H]1c2ccccc2CCN1C(=O)OCc1ccccc1 [Example 567, (S)-benzyl 1-(5-chloro-2-(2-cyanamido-2-oxoethoxy)phenyl)-3,4-dihydroisoquinoline-2(1H)-carboxylate] |  | 370 |
| O=C(COc1ccc(Cl)cc1[C@@H]1c2ccccc2CCN1C(=O)OCc1ccccc1)NS(=O)(=O)C(F)(F)F [Example 568, (S)-1-[5-Chloro-2-(2-oxo-2-trifluoromethanesulfonylamino-ethoxy)-phenyl]-3,4-dihydro-1H-isoquinoline-2-carboxylic acid benzyl ester] |  | 9.18 |
| O=C(OCc1ccccc1)N1CCc2ccccc2C1c1cc(Cl)ccc1OCc1nnn[nH]1 (stereo not shown) [Example 570, (γ)-1-[5-Chloro-2-(1H-tetrazol-5-ylmethoxy)-phenyl]-3,4-dihydro-1H-isoquinoline-2-carboxylic acid benzyl ester] |  | 355 |
| O=C(OCc1ccccc1)N1CCc2ccccc2[C@H]1c1cc(Cl)ccc1OCc1n[nH]c(=O)o1 [Example 571, (S)-1-[5-Chloro-2-(5-oxo-4,5-dihydro-[1,3,4]oxadiazol-2-ylmethoxy)-phenyl]-3,4-dihydro-1H-isoquinoline-2-carboxylic acid benzyl ester] |  | 55 |

The next lines start with the values.

| IC50 [1] [nM] | IC50 [2] [nM] | SMILES |
| --- | --- | --- |
| 67.8 |  | CC[C@@H]1C[C@H]1C(=O)N1CCc2ccccc2[C@H]1c1cc(Cl)ccc1OCC(=O)O [Example 460] |
| 185 |  | CCO[C@@H]1C[C@H]1C(=O)N1CCc2ccccc2[C@H]1c1cc(Cl)ccc1OCC(=O)O [Example 461] |
| 80.9 |  | C[C@@H]1C[C@H]1C(=O)N1CCc2ccccc2[C@H]1c1cc(Cl)ccc1OCC(=O)O [Example 462] |
| 11.2 |  | O=C(O)COc1ccc(Cl)cc1C1c2ccccc2CN1C(=O)C1CC1c1ccccc1 (stereo not drawn) [Example 503, {4-Chloro-2-[2-trans-(2-phenyl-cyclopropanecarbonyl)-2,3-dihydro-1H-isoindol-1-yl]-phenoxy}-acetic acid] |
| 40.5 |  | O=C(O)COc1ccc(Cl)cc1C1c2ccccc2CN1C(=O)C1CC1c1cccc(F)c1 (stereo not drawn) [Example 523, (4-Chloro-2-{2-trans-[2-(3-fluoro-phenyl)-cyclopropanecarbonyl]-2,3-dihydro-1H-isoindol-1-yl}-phenoxy)-acetic acid] |
| 81.3 |  | O=C(O)COc1ccc(Cl)cc1C1c2ccccc2CN1C(=O)C1CC1c1cccc(Cl)c1 (stereo not drawn) [Example 524, (4-Chloro-2-{2-trans-[2-(3-chloro-phenyl)-cyclopropanecarbonyl]-2,3-dihydro-1H-isoindol-1-yl}-phenoxy)-acetic acid] |
| 13.5 |  | O=C(O)COc1ccc(Cl)cc1C1c2ccccc2CN1C(=O)C1CC1c1ccccc1F (stereo not drawn) [Example 525, (4-Chloro-2-{2-trans-[2-(2-fluoro-phenyl)-cyclopropanecarbonyl]-2,3-dihydro-1H-isoindol-1-yl}-phenoxy)-acetic acid] |
| 3.27 |  | Cc1ccccc1[C@@H]1C[C@H]1C(=O)N1CCc2ccccc2[C@H]1c1cc(Cl)ccc1OCC(=O)O [Example 560, {4-Chloro-2-[(S)-2-((1R,2R)-2-o-tolyl-cyclopropanecarbonyl)-1,2,3,4-tetrahydro-isoquinolin-1-yl]-phenoxy}-acetic acid] |
|  | 274 | Cc1ccccc1[C@H]1C[C@@H]1C(=O)N1CCc2ccccc2[C@H]1c1cc(Cl)ccc1OCC(=O)O [Example 561, {4-Chloro-2-[(S)-2-((1S,2S)-2-o-tolyl-cyclopropanecarbonyl)-1,2,3,4-tetrahydro-isoquinolin-1-yl]-phenoxy}-acetic acid] |
|  | 3.75 | O=C(O)COc1ccc(Cl)cc1[C@@H]1c2ccccc2CCN1C(=O)[C@@H]1C[C@H]1c1ccccc1C(F)(F)F [Example 562, (4-Chloro-2-{(S)-2-[(1R,2R)-2-(2-trifluoromethyl-phenyl)-cyclopropanecarbonyl]-1,2,3,4-tetrahydro-isoquinolin-1-yl}-phenoxy)-acetic acid] |
|  | 264 | O=C(O)COc1ccc(Cl)cc1[C@@H]1c2ccccc2CCN1C(=O)[C@H]1C[C@@H]1c1ccccc1C(F)(F)F [Example 563, (4-Chloro-2-{(S)-2-[(1S,2S)-2-(2-trifluoromethyl-phenyl)-cyclopropanecarbonyl]-1,2,3,4-tetrahydro-isoquinolin-1-yl}-phenoxy)-acetic acid] |
|  | 4.29 | O=C(O)COc1ccc(Cl)cc1[C@@H]1c2ccccc2CCN1C(=O)[C@@H]1C[C@H]1c1cccc(Cl)c1 [Example 564, (4-Chloro-2-{(S)-2-[(1R,2R)-2-(3-chloro-phenyl)-cyclopropanecarbonyl]-1,2,3,4-tetrahydro-isoquinolin-1-yl}-phenoxy)-acetic acid] |
|  | 2.64 | O=C(O)COc1ccc(Cl)cc1[C@@H]1c2ccccc2CCN1C(=O)[C@@H]1C[C@H]1c1cccc(F)c1 [Example 565, (4-Chloro-2-{(S)-2-[(1R,2R)-2-(3-fluoro-phenyl)-cyclopropanecarbonyl]-1,2,3,4-tetrahydro-isoquinolin-1-yl}-phenoxy)-acetic acid] |
|  | 2.17 | O=C(O)COc1ccc(Cl)cc1[C@@H]1c2ccccc2CCN1C(=O)[C@@H]1C[C@H]1c1ccc(F)cc1 [Example 566, (4-Chloro-2-{(S)-2-[(1R,2R)-2-(4-fluoro-phenyl)-cyclopropanecarbonyl]-1,2,3,4-tetrahydro-isoquinolin-1-yl}-phenoxy)-acetic acid] |
|  | 120 | O=C(COc1ccc(Cl)cc1[C@@H]1c2ccccc2CCN1C(=O)OCc1ccccc1)NO [Example 569, (S)-1-(5-Chloro-2-hydroxycarbamoylmethoxy-phenyl)-3,4-dihydro-1H-isoquinoline-2-carboxylic acid benzyl ester] |
